± gives the expanded uncertainty stated by the source.
What was measured:
[1] = xn = mol fraction of the nth substance listed; conditions: 101 kPa, Liquid, x1 = 1
[2] = refractive index (Na D-line) (dimensionless); xn = mol fraction of the nth substance listed; conditions: 101 kPa, Liquid, x1 = 1

| SMILES | mass density ([1]; 298.15 K) [kg/m3] | speed of sound ([1]; 298.15 K) [m/s] | viscosity ([1]; 298.15 K) [mPa·s] | mass density ([1]; 303.15 K) [kg/m3] | viscosity ([1]; 303.15 K) [mPa·s] | mass density ([1]; 308.15 K) [kg/m3] | viscosity ([1]; 308.15 K) [mPa·s] | refractive index ([2]; 298.15 K) | refractive index ([2]; 303.15 K) | refractive index ([2]; 308.15 K) |
| --- | --- | --- | --- | --- | --- | --- | --- | --- | --- | --- |
| COc1ccccc1 [anisole] + ClC(Cl)=C(Cl)Cl | 988.9 ± 2 | 1410 ± 8 | 0.992 ± 0.032 | 984.1 ± 2.1 | 0.919 ± 0.03 | 979.4 ± 2.1 | 0.853 ± 0.028 | 1.5148 ± 0.0024 | 1.5124 ± 0.0024 | 1.5092 ± 0.0024 |
| COc1ccccc1 [anisole] + ClC(Cl)C(Cl)Cl | 988.9 ± 2 | 1410 ± 8 | 0.992 ± 0.032 | 984.1 ± 2.1 | 0.919 ± 0.03 | 979.4 ± 2.1 | 0.853 ± 0.028 | 1.5148 ± 0.0024 | 1.5124 ± 0.0024 | 1.5092 ± 0.0024 |
